“Also recorded” adds a separate entry of the source. Like-named read-outs stand apart in the source and are kept apart here.

The target of one data set is T1, rHuman carboxyesterase 1 (Homo sapiens, UniProt P23141).
T1 sequence (P23141 18-567): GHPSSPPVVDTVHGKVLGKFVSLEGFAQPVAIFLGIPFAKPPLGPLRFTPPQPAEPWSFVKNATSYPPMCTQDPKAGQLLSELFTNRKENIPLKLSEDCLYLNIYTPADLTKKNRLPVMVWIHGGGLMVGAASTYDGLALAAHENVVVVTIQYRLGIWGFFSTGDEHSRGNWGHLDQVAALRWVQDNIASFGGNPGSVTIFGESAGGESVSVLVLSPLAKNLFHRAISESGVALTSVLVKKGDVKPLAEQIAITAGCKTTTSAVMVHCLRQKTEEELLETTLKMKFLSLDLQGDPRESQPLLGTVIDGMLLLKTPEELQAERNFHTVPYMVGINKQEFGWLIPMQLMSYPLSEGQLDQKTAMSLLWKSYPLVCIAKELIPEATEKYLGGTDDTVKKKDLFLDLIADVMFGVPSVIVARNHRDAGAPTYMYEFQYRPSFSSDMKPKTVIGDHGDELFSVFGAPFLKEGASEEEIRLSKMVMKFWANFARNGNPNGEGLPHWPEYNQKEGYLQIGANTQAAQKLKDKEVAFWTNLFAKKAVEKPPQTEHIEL
In words: Stability with carboxyesterase 1. As to conditions: rHuman carboxyesterase 1 24 U/ml, pH 7.4, 37° C. It counts as in vitro ADME.

In another data set the target is T2, CNK1 PH-domain (CNKSR1) (Homo sapiens, UniProt Q969H4).
T2 construct: The PH-domain His-fusion proteins (CNK1 and AKT1) were expressed and immobilized on a NTA chip; made in house
T2 sequence (Q969H4 403-502 limits assumed): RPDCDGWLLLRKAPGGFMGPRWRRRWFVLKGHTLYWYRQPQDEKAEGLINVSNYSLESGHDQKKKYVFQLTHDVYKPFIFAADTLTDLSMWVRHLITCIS
Briefly: SPR binding assay (Biacore T100), CNK1 PH-domain. The procedure, abridged:
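His-tagged CNK1 PH-domain was captured on an NTA chip to ≤10,000 RU. Small-molecule analytes were injected at 50 μM to 0.010 μM at 30 μL/min, with 1-5% (v/v) DMSO in samples and running buffer. Binding was measured by surface plasmon resonance.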

For data set [1], the system named is mut-KRAS NSCLC cell lines. Briefly: Screening against NSCLC cell line panel, mut-KRAS lines. It counts as cell-based. The method, then:
The isogenic KRAS lines harboring G12D, G12C, and G12V were obtained from Horizon Discovery labs on a one year lease. These cells were cultured in McCoys media with 10% FBS to 80% confluency. Cells were then released from flasks via trypsinization and plated into 96-well plates at an initial density range of 2000 cells per well. Cells were allowed 24 hours to attach, and then the agents were added to the culture media at a range of concentrations from 0-100 μM. Cells were incubated for 72 hours with the drugs, and then viability was assessed using an MTS viability assay. Cells were exposed to MTS reagent (Promega) dissolved in PBS (Hyclone) at a concentration of 200 μL reagent/mL media for 2 hours. Absorbance was then read at 490 nm, and viability was expressed as a percentage normalized between the negative control (no cells plated) and the condition of cells with no drug added (100% viability) normalized as the upper limit of viability.
Our panel of 30 cell lines and an extensive characterization were obtained from Dr. John Minna (UTSW). All cell lines were cultured in RPMI 1640 with 10% FBS. Cells were treated with concentrations of agents at concentrations 0.01 to 50 μM and evaluated as described above. IC50's were determined using Excelfit.

Data set [2] concerns the target T3, direct binding of CNKSR1 to mut-KRAS (Homo sapiens, UniProt Q969H4).
T3 construct: expressed in transfected cells
T3 sequence (Q969H4 1-720): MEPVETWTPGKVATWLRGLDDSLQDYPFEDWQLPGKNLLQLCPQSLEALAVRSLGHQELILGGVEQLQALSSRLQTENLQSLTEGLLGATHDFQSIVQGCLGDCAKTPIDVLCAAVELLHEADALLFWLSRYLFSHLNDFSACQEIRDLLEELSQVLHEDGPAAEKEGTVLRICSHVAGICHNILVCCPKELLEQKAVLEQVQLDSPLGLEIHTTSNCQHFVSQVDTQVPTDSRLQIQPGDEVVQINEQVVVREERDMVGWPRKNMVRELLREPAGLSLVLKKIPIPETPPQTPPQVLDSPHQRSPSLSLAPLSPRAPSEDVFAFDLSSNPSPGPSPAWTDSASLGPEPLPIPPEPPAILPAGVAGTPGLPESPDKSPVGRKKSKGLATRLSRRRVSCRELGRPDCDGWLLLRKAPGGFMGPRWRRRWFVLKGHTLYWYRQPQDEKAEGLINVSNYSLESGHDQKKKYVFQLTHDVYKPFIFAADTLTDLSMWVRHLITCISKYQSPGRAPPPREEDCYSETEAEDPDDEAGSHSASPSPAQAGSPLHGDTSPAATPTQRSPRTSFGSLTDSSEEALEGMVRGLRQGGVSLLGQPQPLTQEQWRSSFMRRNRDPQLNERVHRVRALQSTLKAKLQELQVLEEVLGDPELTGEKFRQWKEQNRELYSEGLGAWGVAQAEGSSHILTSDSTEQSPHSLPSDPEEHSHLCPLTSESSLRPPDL
Briefly: Fluorescence lifetime imaging microscopy (FLIM). It counts as cell-based. The note with it: FIG. 13, FLIM. As to the method: FLIM experiments were carried out using a Leica TCP SP5 inverted advanced confocal microscope system with internal photomultiplier tube (PMT) detector for TCSPC (time-correlated single-photon counting). The sample was excited with a tunable femtosecond (fs) titanium-sapphire laser with repetition rate of 80 MHz and pulse width less then 80 fs (Spectral Physics, Mai Tai BB). The wavelength used for two-photon excitation was 930 nm and the fluorescence was detected through a 525±25 nm interference filter. Images were obtained with oil-immersion objective (numerical aperture NA=1.4), a line scan speed of 400 Hz, with image size of 512×512 pixels. For FLIM analysis the pixels were reduced to 256×256. FLIM data was collected using Becker & Hickl SPC830 data and image acquisition card for TCSPC.

Data set [3] in a line: Stability in biological media: fetal bovine serum. It counts as in vitro ADME. The note with it: 10% fetal bovine serum, 50 μg/ml, 37° C.

Take `CCOC(=O)Cc1nn(Cc2nc(-c3ccc(C)cc3)cs2)c(=O)c2ccccc12` [Compound 7]: the results for the Half life (at rHuman carboxyesterase 1; in data set [3]) were 0.317 h and 13.2 h, respectively. In addition, the dissociation constant Kd on CNK1 PH-domain (CNKSR1) (Table 6, read-out: CNKS KD) stood at 3.2 µM. In addition, the “Surface Plasmon Resonance CNKSR1 binding (RU max)” value on CNK1 PH-domain (CNKSR1) (date 11 26 13) stood at 5.019 RU * 100/Da; on CNK1 PH-domain (CNKSR1) (date 12 09 13), 0.205 RU * 100/Da. Moreover, the entries for the “Surface Plasmon Resonance CNKSR1 stability (RU max post-injection)” value at CNK1 PH-domain (CNKSR1) (date 11 26 13) and on CNK1 PH-domain (CNKSR1) (date 12 09 13) were 0.761 RU * 100/Da and 0.798 RU * 100/Da, respectively. For the same compound, the “inhibition of mut-KRAS cell growth (in words)” value in data set [1] (FIG. 3 and FIG. 5) is recorded as “low micromolar inhibition; also recorded: as effectively as siRNA to KRAS or CNKSR1”. Besides, the IC50 in data set [1] (Table 5, read-out: Mean IC50 mut-KRAS) is 23.9 ± 2.5 µM; in data set [1] (Table 6, mean of 3 mut-KRAS lines, read-out: NSCL cell line cytotoxicity IC50 mut-KRAS), 49 µM. The “direct binding of CNKSR1 to mut-KRAS in cells” value in data set [2] was “inhibit”.

The values above are taken from US9340532B2, “Methods and compositions for inhibiting CNKSR1” (PHUSIS THERAPEUTICS, INC., priority 2012, dated 2016).
